Test results from patent US20010001101A1, “Phenanthroline derivatives” (Zeneca Limited, priority 1997, published 2001).

Legend:
[1] = system: granulation tissue in wound chamber; experiment: in vivo wound chamber model; set-up: species or system rat
Experimental: (e) An in vivo wound chamber model involving the measurement of histological changes in granulation tissue. The test compounds were tested in rats according to the procedures generally described in Schilling et al., Surgery 46(4):702-710 (1959), Hunt et al., Am. J. Surgery 114:302-307 (1967), and Grotendorst et al., J. Clin Inves. 76:2323-2329 (1985). More specifically, stainless wire mesh cylinders were implanted subcutaneously under the back skin of rats (two chambers per animal). The compounds of the present invention were then dissolved in DMSO and injected into each chamber on a daily basis at various concentrations from either day 0-14 or day 7-14. On day 14, the chambers were collected and the granulation tissues contained within the chambers were collected for biochemical (collagen content) or histological evaluation.
Following the in vivo wound chamber model described above, fourteen of the claimed compounds tested to determine the effectiveness of the claimed compounds in inhibiting collagen deposition in the wound chamber.

[2] = system: balloon injured carotid arteries; experiment: rat restenosis model (balloon carotid artery injury); assay type: in vivo; settings: 50 mg/kg oral gavage twice daily day 0-14; day 14
Description: (§1) (f) Various in vivo animal models to determine the applicability of utilizing the compounds of the present invention to treat fibrotic disorders specific to certain cell types or organs. For example, a cardiac fibrosis model in rats, as generally described in Kondo et al., Cardiovascu. Res. 21:248-254 (1987), and Benjamin et al., Circulation Res. 65(3):657-670 (1989), may be used to measure the effectiveness of the compounds of the present invention to inhibit cardiac fibrosis, as well as provide evidence of the regeneration of cardiac cells upon inhibition of fibrotic cell proliferation. Similarly, the left carotid artery injury model, as described generally in Clowes et al., Lab Invest. 49:327-33 (1983), Muller et al., Am. Col. Cardio. 19(2):418 (1992), and Jackson, Trends Cardiovasc. Med. 4:122-130 (1994), may be used to determine the effectiveness of the compounds of the instant invention in vascular remodeling. […]
The effectiveness of Compound 12 in vascular remodeling, as determined in a rat restenosis model, was determined by using a left carotid artery injury rat model, as generally described above. […]

[3] = system: dermal punch wound; experiment: dermal wound healing, rat punch model; assay type: in vivo; settings: compared to control
Experimental: FIG. 5 illustrates wound area after treatment of Compound 3 in the dermal punch model.
(§2) The effectiveness of the compounds in dermal wound healing was tested using two wound healing models—rat punch model and rat incisional model—as described above.

[4] = system: kidney fibrosis after Adriamycin injection; experiment: kidney fibrosis rat model (Adriamycin); assay type: in vivo
Description: (f) Various in vivo animal models to determine the applicability of utilizing the compounds of the present invention to treat fibrotic disorders specific to certain cell types or organs. For example, a cardiac fibrosis model in rats, as generally described in Kondo et al., Cardiovascu. Res. 21:248-254 (1987), and Benjamin et al., Circulation Res. 65(3):657-670 (1989), may be used to measure the effectiveness of the compounds of the present invention to inhibit cardiac fibrosis, as well as provide evidence of the regeneration of cardiac cells upon inhibition of fibrotic cell proliferation. Similarly, the left carotid artery injury model, as described generally in Clowes et al., Lab Invest. 49:327-33 (1983), Muller et al., Am. Col. Cardio. 19(2):418 (1992), and Jackson, Trends Cardiovasc. Med. 4:122-130 (1994), may be used to determine the effectiveness of the compounds of the instant invention in vascular remodeling. Other models, such as in vivo brain injury models (see e.g., Berry et al., Acto Neurochrurgica, Suppl., 32:31-53 (1993), Logan et al., Brain Research 587:216-255 (1992)), in vivo kidney fibrosis models (see e.g., DiDonato et al., Nephron 76(2):192-200 (1997), in vivo post-surgical abdominal adhesions model (see e.g., Cohen et al., J. Trauma 30(12):S149-154 (1990), Stein & Keiser, J. Surg. Res. 11:277 (1971), Diegelman et al., J. Surg. Res. 19:239-43 (1975)) may be used to determine the effectiveness of the compounds of the instant invention to treat fibrotic disorders related to the brain, kidney, abdomen and dermis, as well as provide information related to the treatment of other major organs.
The effectiveness of the compounds of the instant invention to treat kidney fibrosis was determined using a kidney fibrosis rat model, as generally described above. More specifically, male SD rats weighing approximately 200-225 g each were injected intravenously with Adriamycin (Pharmacia, MI) on day 1 and again on day 15. The Adriamycin was dissolved in 0.5 ml sterile physiologic saline and infused slowly into the tail vein to ensure complete delivery and to avoid perivascular tissue destruction of the drug.
Three treatment groups were established following Adriamycin injections. The rats were randomly assigned to receive a twice daily gavage of Compound 12 or control (1% CMC). Five animals from each group were sacrificed on week 6, 8 or 12.

[5] = system: dermal incisional wound; experiment: dermal wound healing, rat incisional model; assay type: in vivo; settings: compared to control
Experimental: FIG. 6 illustrates the tensile strength on dermal incisional wound on day 7 after oral treatment of Compound 3 and Compound 12.
FIG. 7 illustrates the tensile strength of incisional wound after local injections of Compound 12.
as §2

[6] = system: scar tissue in the brain following injury; experiment: brain injury model; assay type: in vivo, rat; settings: oral gavage twice daily day 0 to 14, day 14
Description: as §1

[7] = system: isoproterenol-induced myocardial fibrosis; experiment: rat isoproterenol-induced myocardial fibrosis model; assay type: in vivo; settings: left ventricular function at week 6; 50 mg/kg oral gavage twice daily day 4 to day 11
Description: as §1, with “Col.” for “Col. Cardio. 19(2):418 (1992), and Jackson, Trends Cardiovasc. Med. 4:122-130 (1994), may be used to determine the effectiveness of the compounds of the instant invention in vascular remodeling.”
The effectiveness of one of the compounds of the present invention to inhibit cardiac fibrosis and permit the regeneration of cardiac cells was tested in the cardiac fibrosis model generally described above. […] The compound was administered after suspension in 1% CMC at 50 mg/kg by oral gavage twice daily from day 4 to day 11 and histological data was evaluated on day 11 by general histology (H&E and trichrome) and immunohistochemical staining for proliferating cell nuclear antigen (PCNA). Cardiac function (left ventricular function) was measured by inserting a catheter into the left ventricle for measurement of relaxation and contraction pressure on week 6.

[8] = system: 3T6 cells; experiment: 3T6 cells: inhibition of hydroxylation of prolyl residues within collagen (test (c)); assay type: cell-based; settings: hydroxylation of prolyl residues in collagen
Experimental: (c) An in vitro assay involving incubating cultures of 3T6 cells with a test compound and [^14C]- and [^3H]-labelled L-proline, and measuring the inhibition of hydroxylation at the 4-trans-position of prolyl residues within the available collagen using the procedure described by T. J. Franklin and M. Hitchen (Biochem. J., 261:127-130 (1989)).

[9] = system: embryonic chick tendon cells; experiment: embryonic chick tendon cells: inhibition of hydroxylation of prolyl residues within collagen (test (b)); assay type: cell-based; settings: Gallus gallus, hydroxylation of prolyl residues in collagen
Experimental: (b) An in vitro assay system involving incubating embryonic chick tendon cells in the presence of a test compound and measuring the inhibition of hydroxylation at the 4-position of prolyl residues within the available collagen. The embryonic chick tendon cells were prepared from the leg tendons of 17-day chick embryos using the method of P. Dehm and D. Prockop (Biochem. Biophys Acta, 240:358 (1971)). The cells were incubated in the presence of [^14C]- and [^3H]-labelled L-proline and the extent of hydroxylation at the 4-trans-position of the prolyl residues within the collagen was determined using the procedure described by T. J. Franklin and M. Hitchen (Biochem. J, 261:127-130 (1989)).

[10] = system: collagen within the uteri of immature female rats; experiment: in vivo inhibition of prolyl hydroxylation within collagen in uteri of immature female rats (test (d)); settings: Rattus norvegicus, po; 50 mg/kg orally, compound dosed 2 hours before proline administration
Experimental: (d) An in vivo assay involving the measurement of the inhibition by a test compound of hydroxylation at the 4-trans-position of prolyl residues within collagen within the uteri of immature (20-21 day) female rats. The test compounds were administered either orally or intraperitoneally to the rats in which uterine collagen synthesis had been stimulated by the subcutaneous administration of a solution of oestradiol benzoate (0.5 μg on each of two successive days) in arachis […] oil. The rats were dosed with 5 μCuries of [^14C]-L-proline and the uteri were taken 2 hours after the dosing of the radiolabelled proline and sonicated. Collagen was extracted by treatment of the tissue with water at 120° C. for 1 hour in an autoclave and hydrolysed by treatment with 6N hydrochloric acid for 18 hours at reflux temperature. The proline and 4-hydroxyproline residues were separated by column chromatography on a reversed-phase Spherisorb S5ODS1 column using as eluent a 89.9:10:0.1 v/v mixture of water:isopropanol:trifluoroacetic acid to which 0.3% w/v of sodium dodecylsulphate had been added. The ratio of radioactivity found in each of the proline and 4-hydroxyproline fractions was determined by liquid scintillation counting to allow the measurement of the inhibition of hydroxylation by a test compound.

[11] = target: T1, prolyl 4-hydroxylase (Gallus gallus, UniProt P16924); experiment: in vitro enzyme assay, cell free, highly purified prolyl 4-hydroxylase (test (a)); assay type: biochemical
T1 construct: a highly purified preparation of prolyl 4-hydroxylase; from tissue; chick embryos according to the cited method (own knowledge)
T1 sequence (P16924 1-516): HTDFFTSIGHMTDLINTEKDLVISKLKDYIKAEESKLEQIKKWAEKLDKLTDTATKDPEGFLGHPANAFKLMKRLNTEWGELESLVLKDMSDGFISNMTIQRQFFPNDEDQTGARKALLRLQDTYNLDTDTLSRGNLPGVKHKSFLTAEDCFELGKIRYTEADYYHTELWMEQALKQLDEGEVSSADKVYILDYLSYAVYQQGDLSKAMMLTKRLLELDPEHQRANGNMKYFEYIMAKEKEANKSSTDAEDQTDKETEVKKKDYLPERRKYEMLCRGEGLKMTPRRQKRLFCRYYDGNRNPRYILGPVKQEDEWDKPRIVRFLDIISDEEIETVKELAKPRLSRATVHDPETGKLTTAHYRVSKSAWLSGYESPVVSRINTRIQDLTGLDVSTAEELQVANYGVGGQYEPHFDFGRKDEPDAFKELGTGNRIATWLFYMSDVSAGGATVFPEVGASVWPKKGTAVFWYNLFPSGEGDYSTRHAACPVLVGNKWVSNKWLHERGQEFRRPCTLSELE
T1 sequence (P09102 23-515 partner): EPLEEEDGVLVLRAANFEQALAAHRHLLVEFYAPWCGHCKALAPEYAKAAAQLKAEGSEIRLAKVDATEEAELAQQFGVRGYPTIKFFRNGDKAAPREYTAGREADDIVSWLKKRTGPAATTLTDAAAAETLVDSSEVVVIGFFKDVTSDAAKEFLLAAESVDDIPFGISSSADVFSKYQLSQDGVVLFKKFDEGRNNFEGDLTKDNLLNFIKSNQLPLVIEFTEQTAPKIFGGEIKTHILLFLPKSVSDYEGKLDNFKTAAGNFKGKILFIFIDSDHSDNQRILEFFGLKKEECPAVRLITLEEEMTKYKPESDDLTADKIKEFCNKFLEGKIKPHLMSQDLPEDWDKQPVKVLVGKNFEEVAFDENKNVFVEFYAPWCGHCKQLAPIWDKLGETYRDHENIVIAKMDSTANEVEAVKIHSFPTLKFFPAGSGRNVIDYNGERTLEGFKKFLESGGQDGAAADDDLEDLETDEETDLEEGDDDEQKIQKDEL
Experimental: (a) An in vitro enzyme assay system, which assesses the inhibitory properties of a test compound in a cell free system using a highly purified preparation of prolyl 4-hydroxylase. The enzyme preparation was obtained using the method described by N. Kedersha and R. Berg (Collagen Related Research, 1:345 (1981)) and the activity of a test compound was measured using the method described by C. J. Cunliffe, T. J. Franklin and R. Gaskell (Biochem. J., 240:617 (1986)).

| IC50 [8] | IC50 [11] | melting point | Structure (SMILES) | response vs control in vivo at 0.05 mg ([1]; Rattus norvegicus, 50 μg dosage, injected into chamber daily, day 7-14 treatment, read-out: Mean Collagen content (% of Control) On Day 14) | apoptotic cell numbers (positive staining of apoptotic cells) ([1]; wound chamber) | rebound of collagen accumulation after discontinuing administration ([1]; wound chamber, at higher doses) | development of neointimal formation [2] | healing time [3] | development of renal hypertension ([4]; twice daily gavage, versus control) | development of kidney fibrosis (histology) ([4]; twice daily gavage, versus control (1% CMC)) | Cardiac function ([4]; week 12) | long term toxicity, as measured by mean body weight and bone density ([4]; week 12) | tensile strength of wound [5] | activation of astrocytes ([6]; GFAP staining) | collagen deposition in the scar ([6]; type I collagen staining) | Contraction pressure (dP/dt, mm Hg) [7] | Relaxation pressure (Min-P, mm Hg) [7] | IC50 [9] | inhibition at 50 mg/kg [10] |
| --- | --- | --- | --- | --- | --- | --- | --- | --- | --- | --- | --- | --- | --- | --- | --- | --- | --- | --- | --- |
| – | – | – | O=C(O)C1C=Nc2c(ccc3cccnc23)C1=O (stereo not shown) [Compound 12, 3-carboxy-4-oxo-3,4-dihydro-1,10-phenanthroline] | 80.7% | dose-dependently increased positive staining of apoptotic cells | prevented rebound of collagen accumulation | significantly reduce the development of neointimal formation | increased healing time | blocked the development of renal hypertension | prevented the development of kidney fibrosis | improved | not material | reduced tensil strength | decreased the activation of actrocytes | reduced collagen deposition in the scar | 5770 ± 95.1 mm Hg | 2.7 ± 0.8 mm Hg | – | – |
| 5400 nM | 400 nM | 236 to 237 °C | CCCCN(CC)C(=O)c1cnc2c3c(ccc2c1)C(=O)C(C(=O)O)C=N3 (stereo not shown) [Example 2, 8-(N-butyl-N-ethylcarbamoyl)-3-carboxy-4-oxo-3,4-dihydro-1,10-phenanthroline] | – | – | – | – | – | – | – | – | – | – | – | – | – | – | 1200 nM | 46% |
